Source: ChEMBL document CHEMBL1201862, “PubChem BioAssay data set” (2004)
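Dose response: 5 concentrations. Exposure: 48 h. Format: 96-well plates. Endpoint: linear interpolation; highest concentration if not reached. The concentration for 50% growth inhibition is given as GI50.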 The source made the active and inactive calls. Cut-off read from the data, not from the text of the source: active = GI50 up to about 1.1 µM and inactive = higher.

Assays:
Assay in all cases: inhibition of tumour cell growth, NCI panel, 48 h
[1] = test system: TK-10
[2] = test system: OVCAR-4
[3] = test system: NCI-H226
[4] = test system: HT-29
[5] = test system: Malme-3M
[6] = test system: MDA-MB-231
[7] = test system: SF-539
[8] = test system: MDA-MB-435
[9] = test system: CAKI-1
[10] = test system: SK-MEL-2
[11] = test system: OVCAR-8
[12] = test system: IGROV-1
[13] = test system: ACHN
[14] = test system: MCF7
[15] = test system: KM12
[16] = test system: SF-268
[17] = test system: OVCAR-3
[18] = test system: PC-3
[19] = test system: 786-0
[20] = test system: HCT-15
[21] = test system: SW-620
[22] = test system: HOP-92
[23] = test system: K562
[24] = test system: UACC-62
[25] = test system: UO-31
[26] = test system: RPMI-8226
[27] = test system: NCI-H522
[28] = test system: NCI-H460
[29] = test system: Hs-578T
[30] = test system: DU-145
[31] = test system: COLO 205
[32] = test system: SF-295
[33] = test system: SNB-19
[34] = test system: A498
[35] = test system: MDA-N
[36] = test system: SK-MEL-5
[37] = test system: UACC-257
[38] = test system: EKVX
[39] = test system: SK-MEL-28
[40] = test system: SR
[41] = test system: OVCAR-5
[42] = test system: SK-OV-3
[43] = test system: M14
[44] = test system: LOX IMVI
[45] = test system: RXF 393
[46] = test system: A549
[47] = test system: MOLT-4
[48] = test system: T47D
[49] = test system: NCI-H23
[50] = test system: SN12C
[51] = test system: SNB-75
[52] = test system: BT-549
[53] = test system: HOP-62
[54] = test system: CCRF-CEM
[55] = test system: NCI/ADR-RES
[56] = test system: HCT-116
[57] = test system: U-251
[58] = test system: HCC 2998
[59] = test system: HL-60

Measured: GI50

S=C1c2cc(Cl)ccc2N=C(NC2CCCC2)C2CSCN12 (stereo not drawn)
inactive: [1] > 100 µM | [2] > 100 µM | [3] > 100 µM | [4] > 100 µM | [5] > 100 µM | [6] > 100 µM | [7] 89.9 µM | [8] > 91.8 µM | [9] > 100 µM | [10] > 76.6 µM | [11] > 100 µM | [12] > 100 µM | [13] > 100 µM | [14] > 71.4 µM | [15] > 41.4 µM | [16] > 100 µM | [17] > 68.7 µM | [18] > 55.6 µM | [19] > 100 µM | [21] > 85.3 µM | [22] 60.5 µM | [23] > 68.7 µM | [24] > 92.9 µM | [25] > 100 µM | [26] > 63.8 µM | [27] > 100 µM | [28] > 100 µM | [29] > 96.6 µM | [30] > 100 µM | [31] > 100 µM | [32] > 75.9 µM | [33] > 100 µM | [34] > 100 µM | [35] 97.3 µM | [36] > 100 µM | [37] > 91.6 µM | [38] > 91 µM | [39] > 100 µM | [40] > 60.1 µM | [41] > 100 µM | [42] > 100 µM | [43] > 78 µM | [44] > 100 µM | [45] > 69.7 µM | [46] > 84.9 µM | [47] > 57.7 µM | [48] > 55 µM | [49] 62.5 µM | [50] > 100 µM | [51] 99.3 µM | [52] > 100 µM | [53] > 100 µM | [54] > 69.5 µM | [55] 98.6 µM | [56] > 74.5 µM | [57] > 100 µM | [58] > 100 µM
> 100 µM: [20]

C=C1CC(COc2ccc3c(C)cc(=O)oc3c2)(c2ccccc2)OC1=O (stereo not drawn)
active: [21] 0.646 µM | [22] 0.394 µM | [23] 0.356 µM | [26] 0.292 µM | [59] 0.263 µM | [54] 0.281 µM
1.74 µM: [20]
inactive: [1] 1.62 µM | [2] 2.16 µM | [3] 6.11 µM | [4] 1.29 µM | [5] 1.3 µM | [6] 2.74 µM | [7] 2.45 µM | [8] 2.43 µM | [9] 1.64 µM | [10] 1.4 µM | [11] 2.26 µM | [12] 1.84 µM | [13] 3.37 µM | [14] 1.13 µM | [15] 5.47 µM | [16] 5.33 µM | [17] 2.69 µM | [18] 2.2 µM | [19] 1.48 µM | [24] 1.61 µM | [25] 4.88 µM | [27] 1.74 µM | [28] 7.43 µM | [29] 6.82 µM | [30] 2.48 µM | [31] 1.34 µM | [32] 6.85 µM | [33] 15.2 µM | [34] 2.64 µM | [35] 1.95 µM | [36] 2.2 µM | [37] 1.83 µM | [38] 9.29 µM | [39] 2.41 µM | [40] 1.7 µM | [41] 12.1 µM | [42] 4.17 µM | [43] 1.33 µM | [44] 1.26 µM | [46] 11.5 µM | [47] 1.68 µM | [48] 2.24 µM | [49] 2.34 µM | [50] 5.27 µM | [51] 6.95 µM | [52] 1.74 µM | [53] 13.1 µM | [55] 2.28 µM | [56] 1.27 µM | [57] 10.4 µM | [58] 5.18 µM

O=C(NC12CC3CC(CC(C3)C1)C2)n1cnc2c(Cl)ncnc21
35 µM: [20]
inactive: [1] > 100 µM | [4] 27 µM | [5] > 100 µM | [6] 42.8 µM | [7] 42.6 µM | [8] 19.1 µM | [9] > 100 µM | [10] 28.3 µM | [11] 26 µM | [12] 18.5 µM | [13] 21.2 µM | [14] > 100 µM | [15] > 100 µM | [16] 22.6 µM | [17] 22.7 µM | [18] 26.4 µM | [19] > 100 µM | [21] 37 µM | [22] 34.2 µM | [23] 25.8 µM | [24] 81.1 µM | [25] > 100 µM | [26] 40.7 µM | [27] 27.9 µM | [28] 28 µM | [29] 32.3 µM | [30] 24.3 µM | [31] 17 µM | [59] 3.28 µM | [32] 59.8 µM | [33] > 100 µM | [34] > 100 µM | [35] 21.6 µM | [36] 24.2 µM | [37] 35.8 µM | [38] 25.8 µM | [39] 42.9 µM | [40] 10.8 µM | [41] > 100 µM | [42] 34.3 µM | [43] 23.1 µM | [44] 18.7 µM | [45] 35.2 µM | [46] 38.4 µM | [47] 15 µM | [48] > 100 µM | [49] 22.7 µM | [50] > 100 µM | [51] 27.4 µM | [52] 31.3 µM | [53] 37.5 µM | [54] 7.71 µM | [55] > 100 µM | [56] 37.8 µM | [57] 27.2 µM | [58] 19.1 µM

CN(C)Cc1cc(C(=O)/C=C/c2ccc([N+](=O)[O-])cc2)cc(CN(C)C)c1O
inactive: [1] 16 µM | [3] 3.9 µM | [4] 9.04 µM | [6] 14.9 µM | [7] 18.5 µM | [8] 7.1 µM | [10] 11.1 µM | [11] 25 µM | [12] 12.2 µM | [13] 3.33 µM | [14] 13.3 µM | [15] 11.9 µM | [16] 16 µM | [17] 2.27 µM | [18] 17 µM | [19] 2.31 µM | [21] 10.3 µM | [22] 8.83 µM | [23] 4.13 µM | [24] 13.9 µM | [25] 16.1 µM | [26] 2.43 µM | [27] 4.74 µM | [29] 18.8 µM | [30] 11 µM | [31] 1.99 µM | [59] 2.07 µM | [32] 22.3 µM | [33] 83.4 µM | [34] 11 µM | [35] 11.7 µM | [36] 11.3 µM | [37] 14.1 µM | [38] 12.8 µM | [40] 4.12 µM | [41] 16.6 µM | [43] 9.23 µM | [44] 2.24 µM | [45] 14.2 µM | [46] 22.7 µM | [47] 18.9 µM | [48] 13.4 µM | [49] 18.3 µM | [50] 7.8 µM | [51] 2.97 µM | [52] 13.6 µM | [53] 3.72 µM | [54] 3.3 µM | [55] 26.7 µM | [56] 2.86 µM | [57] 3.18 µM | [58] 17.4 µM
10.1 µM: [20]

CSc1ncnc2c1cnn2Cc1cn(COCCO)nn1
> 100 µM: [20]
inactive: [1] > 100 µM | [2] 45.5 µM | [3] > 100 µM | [4] 22.3 µM | [5] > 100 µM | [6] > 100 µM | [7] > 100 µM | [8] 11.1 µM | [10] 39 µM | [12] 74.8 µM | [13] > 100 µM | [14] 43.3 µM | [15] 23.2 µM | [16] > 100 µM | [17] 18.3 µM | [18] 36 µM | [19] 18.7 µM | [21] 44.3 µM | [22] > 100 µM | [23] 38.4 µM | [24] 84.3 µM | [25] > 100 µM | [26] 34.3 µM | [28] 32 µM | [29] > 100 µM | [30] 49.3 µM | [31] 33.9 µM | [59] 40 µM | [33] > 100 µM | [34] > 100 µM | [35] 18.5 µM | [36] 46.8 µM | [37] > 100 µM | [39] > 100 µM | [40] 12.5 µM | [41] 88.5 µM | [42] 47.6 µM | [43] > 100 µM | [44] 80.7 µM | [45] 46.6 µM | [46] 51.8 µM | [48] > 100 µM | [49] 49.7 µM | [50] 64.6 µM | [52] > 100 µM | [53] 64.7 µM | [54] 43.5 µM | [55] > 100 µM | [56] 45.4 µM | [57] 64.1 µM | [58] 32.2 µM
